Results published in patent US9090899B2, “Methods of diagnosing and treating prostate cancer characterized by NDRG1-ERG fusion” (CORNELL UNIVERSITY, priority 2009, dated 2015).

What was measured:
Type in all cases: cell-based
[1] = test system: NDRG1 mRNA; test: Hormone treatment of LNCaP cells, NDRG1 mRNA by TAQMAN quantitative RT-PCR; conditions: for Induction of NDRG1 mRNA: LNCaP cells, 12 hours, 10 nM 17β-estradiol or 10 nM DPN; for NDRG1 mRNA expression: serum-starved LNCaP cells, 1 nM R1881 or 10 nM E2, 3, 12 and 24 h, fold change against vehicle (Ethanol), normalized against TCFL1
Method: (§1) FIG. 6. Hormone treatment of LNCaP cells induced SLC45A3 and NDRG1 mRNA expression. SLC45A3 (A and C) or NDRG1 (B and D) mRNA expression was induced upon stimulation with synthetic androgen (R1881) and 17β-estradiol (E2). Serum-starved LNCaP cells were stimulated with 1 nM R1881, 1 nM R1881 in combination with 10 μM Flutamide (A and B), 10 nM E2 or 10 nM diarylpropionitrile (DPN) (C and D) for 3, 12 and 24 h. Samples were run in triplicate and normalized against TCFL1. Columns indicate the mean fold change of induction of three biological replicates against vehicle (Ethanol) only treated cells for the respective time points±SEM.
(§2) Hormone Treatment of LNCaP—The prostate cancer cell line LNCaP was obtained from ATCC (Manassas, Va.; cat.#CRL-1740) and maintained according to the suppliers instructions. For hormonal treatment, cells were plated (500,000 cells/10 cm^2) in the presence of complete growth medium supplemented with 1% Penicillin/Streptomycin. Cells were starved for 48 h in charcoal-stripped (CS) medium (RPMI-1640 1×, 5% charcoal-stripped […], 1% Penicillin/Streptomycin) and then treated with R1881 (1 nM), 17β-estradiol (10 nM), diarylpropionitrile (DPN, 10 nM) or ethanol vehicle for 3, 12, and 24 hours. RNA was extracted using the TRIzol Reagent (Invitrogen, Carlsbad, Calif.), subjected to DNase treatment (DNA-free™ Kit, Applied Biosystems) according to the manufacturer's instructions. To test for the specificity of androgen-stimulation, cells were treated with10 μM Flutamide for 2 hours and then treated with R1881 as described above. TAQMAN expression assays (Applied Biosystems) were used to quantify relative levels of SL45A3, NDRG1, PSA (KLK3) and IGF1R.

[2] = test system: IGF2R mRNA; test: Hormone treatment of LNCaP cells, IGF2R mRNA by TAQMAN quantitative RT-PCR; conditions: serum-starved LNCaP cells; 1 nM R1881 or 10 nM E2; 3, 12 and 24 h; fold change against vehicle (Ethanol), normalized against TCFL1
Method: (§3) FIG. 7. Androgen and 17β-estradiol (E2) signaling of known target genes in LNCaP cells. IGF2R (A) and PSA (B) mRNA expression was induced upon stimulation with synthetic androgen (R1881) and E2. Serum-starved LNCaP cells were stimulated with 1 nM R1881, 1 nM R1881 in combination with 10 μM Flutamide, 10 nM E2 or 10 nM diarylpropionitrile (DPN) for 3, 12 and 24 h. Total RNA was extracted and used for quantitative RT-PCR using TAQMAN assay. Samples were run in triplicate and normalized against TCFL1. Columns indicate the mean fold change of induction of three biological replicates against vehicle (Ethanol) only treated cells for the respective time points±SEM.
as §2, with “RNA was extracted using the TRIzol Reagent (Invitrogen, Carlsbad, Calif.), subjected to DNase treatment (DNA-free™ Kit, Applied Biosystems) according to the manufacturer's instructions. To test for the specificity of androgen-stimulation, cells were treated with10 μM Flutamide for 2 hours and then treated with R1881 as described above.” left out

[3] = test system: PSA (KLK3) mRNA; test: Hormone treatment of LNCaP cells, PSA mRNA by TAQMAN quantitative RT-PCR; conditions: serum-starved LNCaP cells; 1 nM R1881 or 10 nM E2; 3, 12 and 24 h; fold change against vehicle (Ethanol), normalized against TCFL1
Method: as §3
as §2, with “RNA was extracted using the TRIzol Reagent (Invitrogen, Carlsbad, Calif.), subjected to DNase treatment (DNA-free™ Kit, Applied Biosystems) according to the manufacturer's instructions. To test for the specificity of androgen-stimulation, cells were treated with10 μM Flutamide for 2 hours and then treated with R1881 as described above.” left out

[4] = test system: SLC45A3 mRNA; test: Hormone treatment of LNCaP cells, SLC45A3 mRNA by TAQMAN quantitative RT-PCR; conditions: for Induction of SLC45A3 mRNA: LNCaP cells, 3 hours, 10 nM 17β-estradiol or 10 nM DPN; for SLC45A3 mRNA expression: serum-starved LNCaP cells, 1 nM R1881 or 10 nM E2, 3, 12 and 24 h, fold change against vehicle (Ethanol), normalized against TCFL1
Method: as §1, §2

C[C@]12CC[C@@H]3c4ccc(O)cc4CC[C@H]3[C@@H]1CC[C@@H]2O [17β-estradiol]
observed: Induction of NDRG1 mRNA [1] | Induction of SLC45A3 mRNA [4]
induced: NDRG1 mRNA expression [1] | IGF2R mRNA expression [2] | PSA mRNA expression [3] | SLC45A3 mRNA expression [4]

N#CC(Cc1ccc(O)cc1)c1ccc(O)cc1 (stereo not drawn) [DPN, diarylpropionitrile]
not: Induction of NDRG1 mRNA [1] | Induction of SLC45A3 mRNA [4]

C[C@]1(O)CC[C@H]2[C@@H]3CCC4=CC(=O)CCC4=C3C=C[C@@]21C [R1881]
induced: NDRG1 mRNA expression [1] | IGF2R mRNA expression [2] | PSA mRNA expression [3] | SLC45A3 mRNA expression [4]
